The record followed here is patent publication US20090227620A1, “ANTI-INFLAMMATORY COMPOUNDS” (priority 2005, published 2009).

The subject of data set [1] is irritant contact dermatitis elicited with tetradecanoylphorbol-13-acetate (TPA) on ears of mice. Kind of data set: Anti-Inflammatory Test System (TPA-elicited irritant contact dermatitis, mouse ear). It is filed as in vivo, strain NMRI. Conditions: for anti-inflammatory activity (in words): mouse, in vivo; for inhibition in % (auricular weight, inflammatory swelling): topical 10 μl, 30 min before TPA, read 6 hours after. How it is done:
The test sites on the inner surface of the right external ears of mice, e.g. strain NMRI, (8 per group) are treated with 10 μl of the dissolved test compound or with the vehicle (a 4:4:2 mixture of ethanol/acetone/dimethylacetamide) alone. The test compounds are applied at concentrations shown in the TEST RESULT TABLE. Thirty minutes after the treatment irritant contact dermatitis is elicited at the treated auricular sites with 10 μl 0.005% tetradecanoylphorbol-13-acetate (TPA). Skin inflammation is assessed 6 hours after the elicitation by determination of the auricular weights, as a measure of inflammatory swelling. The animals are killed and both ears are cut off and weighed. Inhibitory activity of test compounds is calculated from differences in right and left ears (internal controls) in mice treated with the test compounds compared with animals treated with the vehicle only. Results obtained are as set out in TEST RESULT TABLE below: In the TEST RESULT TABLE the concentrations of the compounds (in bold) used are indicated in micromol/litre. The values given in the TEST RESULT TABLE (in regular letters) are the inhibition in % determined according to the ANTI-INFLAMMATORY TEST SYSTEM used.

Data set [2] deals with T1, purified human steroid sulfatase (Homo sapiens, UniProt P08842).
T1 sequence (P08842 22-583): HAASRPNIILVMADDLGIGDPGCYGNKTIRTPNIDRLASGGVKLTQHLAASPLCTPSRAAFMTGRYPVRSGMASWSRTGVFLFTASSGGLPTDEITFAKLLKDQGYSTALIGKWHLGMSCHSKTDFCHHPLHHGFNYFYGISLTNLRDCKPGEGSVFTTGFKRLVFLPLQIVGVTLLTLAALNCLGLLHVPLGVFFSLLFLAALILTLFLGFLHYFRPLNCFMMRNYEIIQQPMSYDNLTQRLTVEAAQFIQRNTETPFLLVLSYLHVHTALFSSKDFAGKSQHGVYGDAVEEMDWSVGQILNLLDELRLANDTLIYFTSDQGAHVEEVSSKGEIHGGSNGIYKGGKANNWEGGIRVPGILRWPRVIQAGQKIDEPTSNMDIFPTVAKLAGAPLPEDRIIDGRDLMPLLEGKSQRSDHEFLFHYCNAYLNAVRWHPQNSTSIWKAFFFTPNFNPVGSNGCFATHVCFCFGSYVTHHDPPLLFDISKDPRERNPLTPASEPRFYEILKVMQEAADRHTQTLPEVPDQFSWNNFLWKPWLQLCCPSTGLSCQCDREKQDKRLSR
Kind of data set: Assay of Human Steroid Sulfatase (4-methylumbelliferyl sulfate cleavage, fluorescence). Conditions: reference compound, determined in parallel to test compounds.
Procedure: Human placenta is obtained freshly after delivery and stripped of membranes and connective tissues. For storage, the material is frozen at −70° C. After thawing, all further steps are carried out at 4° C., while pH values are adjusted at 20° C. 400 g of the tissue is homogenized in 1.2 l of buffer A (50 mM Tris-HCl, pH 7.4, 0.25 M sucrose). The homogenate obtained is centrifuged at 10,000×g for 45 minutes. The supernatant is set aside and the pellet obtained is re-homogenized in 500 ml of buffer A. After centrifugation, the two supernatants obtained are combined and subjected to ultracentrifugation (100,000×g, 1 hour). The pellet obtained is resuspended in buffer A and centrifugation is repeated. The pellet obtained is suspended in 50 ml of 50 mM Tris-HCl, pH 7.4 and stored at −20° C. until further work-up. After thawing, microsomes are collected by ultracentrifugation (as described above) and are suspended in 50 ml of buffer B (10 mM Tris-HCl, pH 7.0, 1 mM EDTA, 2 mM 2-mercaptoethanol, 1% Triton X-100, 0.1% aprotinin). After 1 hour on ice with gentle agitation, the suspension is centrifuged (100,000×g, 1 hour). The supernatant containing the enzyme activity is collected and the pH is adjusted to 8.0 with 1 M Tris. […]
Plates are incubated at 37° C. for 1 hour. […] Fluorescence intensity is determined in a Titertek Fluoroskan II instrument with λex=355 nm and λem=460 nm. […]

[3] abbreviates: first value, column head printed 0 micromol/litre (alignment unclear).
Where [4] appears, read: second value, column head printed 0.1 micromol/litre (alignment unclear).
[5] abbreviates: third value, column head printed 0.3 micromol/litre (alignment unclear).

For `CC(C)(C)OC(=O)N1CC2CCCCC(C1)C2C(=O)NS(=O)(=O)c1cc(C(F)(F)F)cc(C(F)(F)F)c1` (stereo not shown) [Example 217, 10-(3,5-bis-trifluoromethyl-benzenesulfonylaminocarbonyl)-8-aza-bicyclo[4.3.1]decane-8-carboxylic acid tert-butyl ester], the “anti-inflammatory activity (in words)” value in data set [1] is reported as “anti-inflammatory activity”. The “inhibition in % (auricular weight, inflammatory swelling)” value in data set [1] (setting [3]) worked out at 20%; in data set [1] (setting [4]), 36%; in data set [1] (setting [5]), 45%.

For the compound `NC(=O)c1ccc(C(F)(F)F)cc1N1CCC(CS(=O)(=O)NC(=O)c2cc(C(F)(F)F)cc(C(F)(F)F)c2)CC1` [Example 379], the melting point was 268 to 273 °C.

Take `CC(C)(C)OC(=O)N1CC2CCCCC(C1)C2C(=O)NS(=O)(=O)c1cc(C(F)(F)F)cc(C(F)(F)F)c1` (stereo not shown) [Example 218]: the “anti-inflammatory activity (in words)” value in data set [1] is recorded as “anti-inflammatory activity”. The “inhibition in % (auricular weight, inflammatory swelling)” value in data set [1] (setting [3]) is given as 20%; in data set [1] (setting [4]), 36%; in data set [1] (setting [5]), 45%.

The compound `C[C@]12CC[C@@H]3c4ccc(OS(N)(=O)=O)cc4CC[C@H]3[C@@H]1CCC2=O` [estrone sulfamate, estrone 3-O-sulfamate] had an IC50 in data set [2] of roughly 60 nM.
